According to the supplement of paper PMC10307832:

Columns and labels:
Assay in all cases: relative viability (nuclei count vs DMSO), 5 days (fraction); higher = more cells survive
[1] = test system: NCI-H661
Outline: (§1)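 Lung cancer cell lines were pin-tool dosed in 1536-well plates on the day after seeding, with either a lone drug or a fixed anchor-drug dose plus five library-drug doses (not always all listed) in √10 steps. Nuclei were counted on 4× images after 5 days. Relative viability is the ratio of treated-well to vehicle-well nuclei counts, with each value a median of duplicate plates.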

[2] = test system: NCI-H322M
Outline: as §1

[3] = test system: PC-14
Outline: as §1

[4] = test system: NCI-H1437
Outline: as §1

[5] = test system: NCI-H2342
Outline: as §1

[6] = test system: COR-L23
Outline: as §1

[7] = test system: SW 1573
Outline: as §1

[8] = test system: EKVX
Outline: as §1

[9] = test system: NCI-H1355
Outline: as §1

[10] = test system: PC-3 [JPC-3]
Outline: as §1

[11] = test system: NCI-H1734
Outline: as §1

CC1(C)CCC(c2ccc(Cl)cc2)=C(CN2CCN(c3ccc(C(=O)NS(=O)(=O)c4ccc(N[C@H](CCN5CCOCC5)CSc5ccccc5)c(S(=O)(=O)C(F)(F)F)c4)cc3)CC2)C1 [Navitoclax] + CC(=O)Nc1cccc(-n2c(=O)n(C3CC3)c(=O)c3c(Nc4ccc(I)cc4F)n(C)c(=O)c(C)c32)c1 [Trametinib] (partner 0.02 µM) gave a relative viability ([1]; first compound 0.05 µM) of 0.551, a relative viability ([1]; first compound 0.1581 µM) of 0.533 and a relative viability ([1]; first compound 0.5 µM) of 0.538. For the same compound, the relative viability ([2]; first compound 0.005 µM) was 0.538, the relative viability ([2]; first compound 0.01581 µM) was 0.533 and the relative viability ([2]; first compound 0.05 µM) was 0.453. For the same compound, the relative viability ([2]; first compound 0.1581 µM) was 0.484, the relative viability ([2]; first compound 0.5 µM) was 0.539 and the relative viability ([3]; first compound 0.005 µM) was 0.804. It also gave a relative viability ([3]; first compound 0.01581 µM) of 1.21, a relative viability ([3]; first compound 0.05 µM) of 0.808 and a relative viability ([3]; first compound 0.1581 µM) of 0.801. The relative viability ([3]; first compound 0.5 µM) was 0.695, the relative viability ([4]; first compound 0.005 µM) was 0.476 and the relative viability ([4]; first compound 0.01581 µM) was 0.595. For the same compound, the relative viability ([4]; first compound 0.05 µM) was 0.359, the relative viability ([4]; first compound 0.1581 µM) was 0.472 and the relative viability ([4]; first compound 0.5 µM) was 0.539. The relative viability ([5]; first compound 0.005 µM) was 0.8, the relative viability ([5]; first compound 0.01581 µM) was 0.957 and the relative viability ([5]; first compound 0.05 µM) was 0.819. The relative viability ([5]; first compound 0.1581 µM) was 0.653, the relative viability ([5]; first compound 0.5 µM) was 0.967 and the relative viability ([6]; first compound 0.005 µM) was 0.6. For the same compound, the relative viability ([6]; first compound 0.01581 µM) was 0.601, the relative viability ([6]; first compound 0.05 µM) was 0.514 and the relative viability ([6]; first compound 0.1581 µM) was 0.577. It also gave a relative viability ([6]; first compound 0.5 µM) of 0.61, a relative viability ([7]; first compound 0.005 µM) of 0.623 and a relative viability ([7]; first compound 0.01581 µM) of 0.5. It also gave a relative viability ([7]; first compound 0.05 µM) of 0.654, a relative viability ([7]; first compound 0.1581 µM) of 0.475 and a relative viability ([7]; first compound 0.5 µM) of 0.474. The relative viability ([8]; first compound 0.005 µM) was 0.292, the relative viability ([8]; first compound 0.01581 µM) was 0.457 and the relative viability ([8]; first compound 0.05 µM) was 0.334. For the same compound, the relative viability ([8]; first compound 0.1581 µM) was 0.376, the relative viability ([8]; first compound 0.5 µM) was 0.333 and the relative viability ([9]; first compound 0.005 µM) was 0.446. It also gave a relative viability ([9]; first compound 0.01581 µM) of 0.468, a relative viability ([9]; first compound 0.05 µM) of 0.408 and a relative viability ([9]; first compound 0.1581 µM) of 0.431. It also gave a relative viability ([9]; first compound 0.5 µM) of 0.458, a relative viability ([10]; first compound 0.005 µM) of 0.674 and a relative viability ([10]; first compound 0.01581 µM) of 0.714. It also gave a relative viability ([10]; first compound 0.05 µM) of 0.734, a relative viability ([10]; first compound 0.1581 µM) of 0.668 and a relative viability ([10]; first compound 0.5 µM) of 0.603. It also gave a relative viability ([11]; first compound 0.005 µM) of 0.644, a relative viability ([11]; first compound 0.01581 µM) of 0.776 and a relative viability ([11]; first compound 0.1581 µM) of 0.625. The relative viability ([11]; first compound 0.5 µM) was 0.646.
